According to US10774076B2, “Benzazole compounds and methods for making and using the compounds” (Rigel Pharmaceuticals, Inc., priority 2015, dated 2020):

Tests used:
IL23p19 = test: LPS Induced IL23p19 in THP-1 Cells (with IFNγ Primed) Assay; format: cell-based; details: Homo sapiens, IFNγ primed (50 ng/mL), LPS 1 ug/mL, 18 hours, 10 pt, read-out: IL23-p19 ELISA, THP1-IFNy, LPS, 10 pt EC50
Excerpt: LPS Induced IL23p19 in THP-1 Cells (with IFNγ Primed) Assay
THP-1 Cells (ATCC, Cat # TIB-202), Dimethyl Sulfoxide (DMSO) (Sigma-Aldrich, Cat # D2650), RPMI 1640 (Cellgro, Cat #10-040-CM), Fetal Bovine Serum (Sigma, Cat # F4135), Albumin From Bovine Serum (BSA) (Sigma-Aldrich, Cat # A7906), LPS (Serotype K-235, Sigma, Product Number L 2143), IFNγ (Peprotech, Cat #300-02)
Capture antibody: Human IL-23p19 ELISA (e-Bioscience, Cat. #14-7238-85),
Detection antibody: Primary Mouse Biotinylated anti-human IL-12(p40/p70) (e-Bioscience, Cat. #13-7129-85), Secondary HRP-conjugated Streptavidin (R&D Systems, Cat # DY998), 1×PBST Washing Buffer (PBS-Tween tablet) (VWR International, Cat #80058-558), ELISA Blocking Buffer (PBS with 1% BSA), ELISA Dilution Buffer (PBS with 1% BSA), 384 Well Flat-Bottom, MaxiSorp Black Immuno Plates (Thermo Scientific, Cat #12-565-346), 384 Well Flat-Bottom, White Tissue Culture Plates (Thermo Scientific, Cat #12-565-343), Super Signal ELISA Pico Chemiluminescent Substrate (Thermo Scientific, Cat #37070), Cell Titer Glo reagent (Promega, Cat # G7573), Positive control, IKK2VI inhibitor (Calbiochem, Cat #401483), AquaMax 4000 plate washer (Molecular Devices), Luminometer, Wallac Victor2 1420 Multilabel Counter. Method THP-1 Cells Stimulation:
On day 1, 50K/well THP-1 cells were seeded and primed with IFNγ (50 ng/mL) in 384-well plates for about 18 hours in RPMI media with 10% FBS. On day 2, the compound was serially diluted in DMSO from 5 mM in 3-fold dilutions, and then diluted 1:125 in RPMI media with 10% FBS. 50 μL/well 2× compound was added to 50 μL/well THP-1 cells (with IFNγ primed) in duplicate in 384 well tissue culture plates. The cells were pre-incubated with compound for 1 hour at 37° C., 5% CO2 before addition of 10 μL/well 11×LPS to give a final concentration of 1 ug/mL LPS. Day 3, after stimulation for 18 hours at 37° C., 5% CO2, the assay plate was centrifuged and 70 μL/well supernatant was harvested. IL-23p19 protein in 70 μL/well of supernatant was measured by sandwich ELISA, and 25 μl/well Cell Titer Glo reagent was added to the remaining cells to measure compound toxicity.
Human IL-23p19 Sandwich ELISA:
Maxisorp immuno ELISA plates were pre-coated with 25 μL/well of anti-IL-23p19 capture antibody (2.5 ug/mL) in PBS overnight at room temperature. After washing with 1×PBST, the plates were blocked using 100 μL/well of 1% BSA in PBS for 2 hours at room temperature. The plates were washed three times with 1×PBST and 70 μL/well supernatant were added. The plates were incubated at room temperature for 2 hours with shaking and washed three times with 1×PBST. 25 μL/well of biotin labeled anti-IL-12(p40/p70) detection antibody (100 ng/mL) in PBS with 1% BSA was added and the plates were incubated at room temperature for 2 hours with shaking. After washing three times with 1×PBST, 25 μL/well of streptavidin-HRP (1:200) in PBS with 1% BSA was added and the plates were incubated at room temperature for 20 minutes with shaking. The plates were washed three times with 1×PBST and 25 μL/well of Super Signal ELISA Pico Chemiluminescent Substrate were added. The plates were read with a luminometer, and the chemiluminescence values were entered into Athena (Rigel) for curve fitting, EC50 calculation, and database storage.

IL23-p19 = test: Compound screening using DC cells: LPS-induced IL-23 (p19/p40) ELISA in IFNγ-primed dendritic cells differentiated from human PBMC; format: cell-based; details: Dendritic cell, human PBMC-derived dendritic cells, LPS 1 μg/ml, 18 hours, 10 pt
Method: Compound Screening Using DC Cells
Human PBMC cells (400 million) obtained from the vendor were transferred into a T-175 flask containing 15 ml RPMI media (10% FBS) and incubate for 2 hours at 37° C. After 2 hours, the media including floating cells was aspirated out carefully and 12 ml of fresh RPMI media (10% FBS) containing GMCSF (100 ng/ml) and IL4 (20 ng/ml) was added, and the flask was kept in a 37° C. incubator for 7 days.
After 3 days, fresh GMCSF (100 ng/ml) and IL4 (20 ng/ml) were added to the flask and the incubation continued. After 7 days, the fully differentiated cells were harvested by spinning down (1200 rpm/5 min) and aspirating the media. The cells were suspended in fresh RPMI media (10% FBS) containing 50 ng/ml IFNγ (1000 U/ml) and then plated (50K/well in 100 μl) onto a white clear bottom 96 well plate and left in a 37° C. incubator for 24 hours.
After 24 hours incubation, 100 μl of RPMI media was added containing 2× concentrated test compound per well to the above cell-culture media (final concentration becomes 1×) and the plates were pre-incubated for 1 hour at 37° C. before stimulating with LPS.
After 1 hour compound pre-incubation, 10 μl per well of 20× concentrated LPS solution in RPMI media was added to give a final concentration of 1 μg/ml. The mixture was shaken and incubated the plates at 37° C. for an additional 18 hours.
155 μl of the supernatant was harvested from each well carefully (without the tip touching the bottom of the well) and to the remaining 50 μl/well of the cell culture plate was added 50 μl of Cell Titer Glo reagent. The mixture was incubated for 1-2 minutes on a shaker and the plate was read for luminescence intensity to determine the compound cytotoxicity. The cell culture supernatant collected above was used to carry out IL23 ELISA (65 μl—Supernatant) and IL10 ELISA (90 μl—Supernatant) as described below.
Human IL-23 (p19/p40) ELISA Protocol (e-Biosciences)
To 10.5 ml PBS add 50 μl of anti-IL23 (p19) was added capture antibody (2.5 μg/ml). The mixture was mixed well and 100 μl of the coating solution was added to each well of the 96 well white plates from Pierce. The wells were covered and incubated overnight at 4° C.
The anti-IL23 (p19)-antibody-coated plates were washed 2× using TBST (use plate washer) and blocked using 200 μl of 0.5% Casein for 1.5-2 hours at room temperature with shaking.
The plates were washed 2× using TBST and the supernatant was transferred (65 μl/well) to the above pre-blocked/IL23(p19)-antibody-coated 96 well plate, and incubated at room temperature for 1.5 hours with shaking.
The plates were washed 4× using TBST (plate washer) and 100 μl/well detection antibody solution prepared from 2 μl of biotin labeled anti-IL-12 (p40/p70) antibody in 11 ml 1% BSA/PBS solution (I-5000 dilution) was added. The plates were incubated for 1 hour with shaking at Room temperature.
Again, the plates were washed 4× with TBST and 100 μl of HRP labeled Streptavidin (R&D Systems) solution (10 μl/10 ml 1% BSA solution) was added, and the plates were incubated at room temperature for another 45 minutes with shaking.
After 45 minutes, the plates were washed with TBST 4× and 100 ul/well Super Signal ELISA Pico Chemiluminescent Substrate from Pierce (3.5 ml A+3.5 ml B+3.5 ml MQ water) was added. The plates were shaken for 1-2 minutes then read on a plate reader.

| EC50 (IL23p19) [µM] | EC50 (IL23-p19) [µM] | SMILES |
| --- | --- | --- |
| 0.302 | 0.106 | O=C(Nc1cc2oc(N3CCOCC3)nc2cc1N1CCC(F)(F)CC1)c1csc(-c2cn[nH]c2)n1 [Compound I-29, N-(5-(4,4-difluoropiperidin-1-yl)-2-morpholinobenzo[d]oxazol-6-yl)-2-(1H-pyrazol-4-yl)thiazole-4-carboxamide] |
| 2.93 |  | O=C(Nc1cc2oc(N3CCOCC3)nc2cc1N1CCCCC1)c1csc(-c2cc[nH]n2)n1 [Compound I-13, N-(2-morpholino-5-(piperidin-1-yl)benzo[d]oxazol-6-yl)-2-(1H-pyrazol-3-yl)thiazole-4-carboxamide] |
| 0.0587 | 0.0375 | O=C(Nc1cc2oc(N3CCOCC3)nc2cc1N1CCCC1)c1ccc(-c2cn[nH]c2)o1 [Compound I-46, N-(2-morpholino-5-(pyrrolidin-1-yl)benzo[d]oxazol-6-yl)-5-(1H-pyrazol-4-yl)furan-2-carboxamide] |
| 0.0757 | 0.157 | O=C(Nc1cc2oc(N3CCOCC3)nc2cc1N1CCC(F)CC1)c1ccc(-c2cn[nH]c2)o1 [Compound I-23, N-(5-(4-fluoropiperidin-1-yl)-2-morpholinobenzo[d]oxazol-6-yl)-5-(1H-pyrazol-4-yl)furan-2-carboxamide] |
| 73 | 1.69 | CN1CCN(c2nc3cc(N4CCCCC4)c(NC(=O)c4ccc(-c5ccc(N)nc5)o4)cc3o2)CC1 [Compound I-15, 5-(6-aminopyridin-3-yl)-N-(2-(4-methylpiperazin-1-yl)-5-(piperidin-1-yl)benzo[d]oxazol-6-yl)furan-2-carboxamide] |
| 4450 |  | Cc1cc(-c2ccc(C(=O)Nc3cc4oc(N5CCCCC5)nc4cc3N3CCCCC3)o2)ccn1 [Compound I-33, N-(2,5-di(piperidin-1-yl)benzo[d]oxazol-6-yl)-5-(2-methylpyridin-4-yl)furan-2-carboxamide] |
| 8.32 |  | Nc1ccc(-c2nc(C(=O)Nc3cc4oc(N5CCCCC5)nc4cc3N3CCCCC3)cs2)cn1 [Compound I-34, 2-(6-aminopyridin-3-yl)-N-(2,5-di(piperidin-1-yl)benzo[d]oxazol-6-yl)thiazole-4-carboxamide] |
| 0.0887 | 0.101 | O=C(Nc1cc2oc(N3CCOCC3)nc2cc1N1CCCC(F)(F)C1)c1csc(-c2cn[nH]c2)n1 [Compound I-44, N-(5-(3,3-difluoropiperidin-1-yl)-2-morpholinobenzo[d]oxazol-6-yl)-2-(1H-pyrazol-4-yl)thiazole-4-carboxamide] |
| 7.51 | 0.889 | Cc1cc(-c2ccc(C(=O)Nc3cc4oc(N5CCN(C)CC5)nc4cc3N3CCCCC3)o2)ccn1 [Compound I-18, N-(2-(4-methylpiperazin-1-yl)-5-(piperidin-1-yl)benzo[d]oxazol-6-yl)-5-(2-methylpyridin-4-yl)furan-2-carboxamide] |
| 0.025 | 0.041 | O=C(Nc1cc2oc(N3CCOCC3)nc2cc1N1CCCC(F)C1)c1csc(-c2cn[nH]c2)n1 (centres unmarked) [Compound I-40, N-(5-(3-fluoropiperidin-1-yl)-2-morpholinobenzo[d]oxazol-6-yl)-2-(1H-pyrazol-4-yl)thiazole-4-carboxamide] |
| 228 |  | Nc1ccc(-c2nc(C(=O)Nc3cc4oc(N5CCOCC5)nc4cc3N3CCCCC3)cs2)cn1 [Compound I-11, 2-(6-aminopyridin-3-yl)-N-(2-morpholino-5-(piperidin-1-yl)benzo[d]oxazol-6-yl)thiazole-4-carboxamide] |
| 23.1 |  | Cc1cc(-c2nc(C(=O)Nc3cc4oc(N5CCCCC5)nc4cc3N3CCCCC3)cs2)ccn1 [Compound I-37, N-(2,5-di(piperidin-1-yl)benzo[d]oxazol-6-yl)-2-(2-methylpyridin-4-yl)thiazole-4-carboxamide] |
| 43.5 |  | Cc1cc(-c2nc(C(=O)Nc3cc4oc(N5CCOCC5)nc4cc3N3CCC(F)(F)CC3)cs2)ccn1 [Compound I-30, N-(5-(4,4-difluoropiperidin-1-yl)-2-morpholinobenzo[d]oxazol-6-yl)-2-(2-methylpyridin-4-yl)thiazole-4-carboxamide] |
| 1.18 |  | Cc1cc(-c2nc(C(=O)Nc3cc4oc(N5CCOCC5)nc4cc3N3CCC(F)CC3)cs2)ccn1 [Compound I-26, N-(5-(4-fluoropiperidin-1-yl)-2-morpholinobenzo[d]oxazol-6-yl)-2-(2-methylpyridin-4-yl)thiazole-4-carboxamide] |
| 0.614 |  | O=C(Nc1cc2sc(N3CCOCC3)nc2cc1N1CCCCC1)c1ccc(-c2cc[nH]n2)o1 [Compound I-8, N-(2-morpholino-5-(piperidin-1-yl)benzo[d]thiazol-6-yl)-5-(1H-pyrazol-3-yl)furan-2-carboxamide] |
| 5.24 |  | O=C(Nc1cc2oc(N3CCCCC3)nc2cc1N1CCCCC1)c1csc(-c2cc[nH]n2)n1 [Compound I-36, N-(2,5-di(piperidin-1-yl)benzo[d]oxazol-6-yl)-2-(1H-pyrazol-3-yl)thiazole-4-carboxamide] |
